The text below walks through data of patent US20240361338A1, “DIAGNOSIS AND TREATMENT OF ECTOPIC ENDOMETRIOSIS” (FERRING B.V., priority 2021, published 2024).

SMILES strings stand for the structures.

For one experiment, the system named is HUVECs. Briefly: Annexin V apoptosis assay on HUVECs. Format: cell-based, human. As to conditions: after 24 hours of quinagolide treatment, 10^-5 and 10^-7 M. As to the method:
FIG. 3: Quinagolide effect on EMSCs apoptosis and proliferation. A: Quinagolide concentration-response curve on ectopic EMSCs in both apoptosis (N=1) and proliferation (N=2) assays. B: Effect of two selected quinagolide doses (10^−5 and 10^−7M) on HUVECs (N=1) and ectopic E-MSCs (N=3) apoptosis and proliferation assays (N=2). Data are represented as mean±SD of the indicated number of experiments and normalized to untreated cells (Control). Annexin V assays were performed using the Muse™ Annexin V & Dead Cell Kit (Millipore), according to the manufacturer's recommendations. Briefly, 20×10^3 cells were plated and after 24 h treated with different concentrations of quinagolide. After 24, 48 and 72 hours, cells were detached and resuspended in Muse™ Annexin V & Dead Cell Kit and the percentage of apoptotic cells (Annexin V+) was measured. Data are expressed as the mean±standard deviation (SD) of the media of absorbance of at least three different experiments and normalized to control.

Another experiment concerns ectopic E-MSCs. Briefly: Endothelial differentiation (CD31) of ectopic E-MSCs in co-culture with HUVECs. Format: cell-based, human. To be noted: ectopic E-MSCs, 100 nM, 24-h treatment, 48 h co-culture with HUVECs. Here is the method:
FIG. 5: Quinagolide effect on EMSCs endothelial differentiation. A. FACS gating-strategy for the analysis of CD31^+ EMSCs after direct 48 h co-culture with HUVECs. EMSCs are gated as GFP negative population, and CD31 expression is evaluated on the described gated EMSCs after 48 h co-culture with HUVECs as percentage of CD31 APC positive events. B, C and D: Representative flow cytometry micrographs and quantification, expressed as percentage of variation respect to control co-culture, of the effect of 24 h treatment of EMSCs with 25 μM cabergoline, 1 μM sorafenib, 1 μM cabozantinib (B), 100 nM quinagolide (C) and the combination of 5 μM spiperone and 100 nM quinagolide (D) on EMSCs CD31 expression after 48 h of co-culture with HUVECs. Data are represented as mean±SD of at least three independent experiments, performed on different ectopic EMSC lines, and normalized to untreated co-culture. One-way ANova was performed: *=p<0.05 and ***=p<0.001 vs control.
(BSA)-Phosphate Buffered Saline (PBS) (Sigma). For each staining, 100,000 cells were incubated for 20 minutes at 4° C. with FITC, APC or PE-conjugated antibodies against: CD29, CD44, CD73, CD90 (BD Bioscences, Franklin Lakes, NJ, USA); CD31, CD34, CD105, CD140b, CD146, TEK receptor tyrosine kinase (Tie2), Sushi domain-containing protein 2 (SUSD2) (Miltenyi Biotech, Bergisch Gladbach, Germany); CD45 (AbD Serotec, Raleigh, NC, USA), or epithelial cell adhesion molecule (EPCAM) (BioLegend, San Diego, CA, USA). Labelled cells were washed by centrifugation and final pellet was resuspended in 200 μl of 0.1% BSA-PBS before cytofluorimetric analysis. Isotype (Miltenyi Biotec) was used as negative control.
Quinagolide powder (provided by Ferring Pharmaceuticals) was stored at 4° C. and resuspended in dimethylsulphoxide (DMSO) to a stock solution of 1 mM immediately before use. Spiperone powder (Sigma-Aldrich) was resuspended in water to a stock concentration of 1 mM and stored at −20° C. Cabergoline powder (Sigma-Aldrich) was dissolved in DMSO to a stock concentration of 25 mM and stored at −20° C. Sorafenib and cabozantinib (Sigma-Aldrich) were resuspended in DMSO to a final concentration of 10 mM and according to the manufacturer's instructions, and stored at −20° C. and −80° C., respectively. Quinagolide, spiperone and cabergoline were diluted 1:100 (final concentration 100 nM), 1:1000 (final concentration 5 μM) and 1:1000 (final concentration 25 μM) respectively. Quinagolide, cabergoline, sorafenib and cabozantinib and were administered for 24 hours during co-culture experiments, while spiperone was added to culture medium 1 h before quinagolide treatment. For invasion assays, E-MSCs were treated with spiperone 1 h before the cell detachment and quinagolide was added only when cells were plated on Matrigel. […]

Another experiment relates to endometriotic lesions. To be noted: patients with severe endometriosis and hyperprolactinemia (Gomez et al, 2011); cited from earlier work.

Take `CCCN1C[C@@H](NS(=O)(=O)N(CC)CC)C[C@@H]2Cc3c(O)cccc3C[C@H]21` [quinagolide, N,N-diethyl-N′-[(3S,4aS,10aR)-6-hydroxy-1-propyl-1,2,3,4,4a,5,10,10a-octahydrobenzo[g]quinolin-3-yl]sulfamide]: the “apoptosis of HUVEC cells” value with HUVECs is reported as “did not show alteration”. For the same compound, the “percentage of CD31 expressing E-MSCs after co-culture” value in the experiment on ectopic E-MSCs was “significantly reduced”. For the same compound, the “size of endometriotic lesions” value in the experiment with endometriotic lesions is “reduced the size”.
